The results in this text go back to patent publication US10067143B2, “Ubiquitination assay” (ITI Scotland Limited, priority 2010, dated 2018).

Some results are limits rather than exact numbers.

The subject of the assay is T1, SCF^Skp2/Cks1.
T1 construct: 6His-Skp2-(isoform 1, hu,FL),; GST-Skp1-(hu,FL), 6His-Cul1-; (hu,FL), UT-Rbx1-(hu,FL); 6His-Cks1-(hu,FL); 6His (N); GST (N); made in house
Put plainly: 'Live' SCF^Skp2/Cks1 (E3) p27 ubiquitination assay, ECL. The class given is biochemical, human. The conditions noted are these: for shows up as inhibitor in R140 kinase inhibitor panel / IC50, E3 (SCF^Skp2/Cks1) assay ECL: 60 minute incubation; for shows up as inhibitor in R140 kinase inhibitor panel / inhibition in E3 assay, panel of 41 inhibitors: final E3 assay conditions; for IC50, E3 (SCF^Skp2/Cks1) assay ECL: 25 nM c-Myc p27, 5 nM E1, 1 μM E2, 25 nM E3 tetramer, 25 nM Cks1, 2 μM Ub, 100 μM ATP; for inhibition in E3 assay, panel of 41 inhibitors: R140 kinase inhibitor panel + PYR-41. As to the method: FIG. 30 (a): ‘Live’ SCF^Skp2/Cks1 Assay—ECL Inhibitor study—PYR-41 (E1 inhibitor).
FIG. 32: ‘Live’ SCF^Skp2/Cks1 Assay—ECL R140 Kinase inhibit or panel. Used 60 minute incubation; 25 nM c-Myc p27; anti-c-Myc capture for p27 (Millipore 05-274, 1/500); 5 nM E1; 1 μM E2 (HA); 25 nM E3 tetramer; 25 nM Cks1; 2 μM Ub; 100 μM ATP; streptavidin sulfo tag (MSD, R32AD-1, 1 μg/ml).
FIG. 34: ‘Live’ SCF^Skp2/Cks1 Assay—ECL follow up IC50s. Used 60 minute incubation; 25 nM c-Myc p27; anti c-Myc capture for p27 (Millipore 05-274, 1/500); 5 nM E1; 1 μM E2 (HA); 25 nM E3 tetramer; 25 nM Cks1; 2 μM Ub; 100 μM ATP; streptavidin sulfo tag (MSD, R32AD-1, 1 μg/ml). Titration of PYR41 (Calbiochem 662105) from 300 μM to 10 nM (control). Titration of Rottlerin, EGCG, AG538 and K252c from 300 μM to 10 nM.
Each of the assays in the p27 ubiquitination cascade (E1, E2 and E3) were tested against the E1 inhibitor PYR-41. No pre-charging of either the E1 or E2 was carried out prior to the introduction of the compound although in the E3 assay, p27 phosphorylation by CDK2/Cyclin E was carried out in the absence of inhibitor.
In order to test the feasibility of screening the E3 assay against a range of inhibitors, the assay was tested against a panel of 41 inhibitors (40 known kinase inhibitors and PYR-41) (FIG. 31). […] Using the same assay conditions, the E3 assay was tested against these inhibitors (FIG. 33).

T1 sequence (Q13309 whole entry, canonical isoform): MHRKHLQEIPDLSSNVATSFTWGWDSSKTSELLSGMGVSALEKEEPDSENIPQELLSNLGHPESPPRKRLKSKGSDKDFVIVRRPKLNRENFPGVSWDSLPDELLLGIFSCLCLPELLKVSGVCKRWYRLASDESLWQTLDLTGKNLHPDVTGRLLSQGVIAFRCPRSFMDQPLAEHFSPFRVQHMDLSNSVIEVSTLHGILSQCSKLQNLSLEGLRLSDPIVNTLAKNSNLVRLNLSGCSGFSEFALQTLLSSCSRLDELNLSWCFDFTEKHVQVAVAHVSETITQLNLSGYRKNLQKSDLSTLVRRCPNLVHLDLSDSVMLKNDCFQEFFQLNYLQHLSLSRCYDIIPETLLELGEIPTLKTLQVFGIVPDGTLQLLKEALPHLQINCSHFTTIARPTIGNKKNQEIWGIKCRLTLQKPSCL
T1 sequence (P63208 1-160 isoform P63208-2, further chain): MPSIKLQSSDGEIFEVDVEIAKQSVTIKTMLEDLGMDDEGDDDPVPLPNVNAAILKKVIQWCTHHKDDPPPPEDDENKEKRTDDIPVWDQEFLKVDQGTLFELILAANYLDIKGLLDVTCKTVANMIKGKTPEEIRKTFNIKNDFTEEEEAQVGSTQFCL
T1 sequence (Q13616 whole entry, further chain, canonical isoform): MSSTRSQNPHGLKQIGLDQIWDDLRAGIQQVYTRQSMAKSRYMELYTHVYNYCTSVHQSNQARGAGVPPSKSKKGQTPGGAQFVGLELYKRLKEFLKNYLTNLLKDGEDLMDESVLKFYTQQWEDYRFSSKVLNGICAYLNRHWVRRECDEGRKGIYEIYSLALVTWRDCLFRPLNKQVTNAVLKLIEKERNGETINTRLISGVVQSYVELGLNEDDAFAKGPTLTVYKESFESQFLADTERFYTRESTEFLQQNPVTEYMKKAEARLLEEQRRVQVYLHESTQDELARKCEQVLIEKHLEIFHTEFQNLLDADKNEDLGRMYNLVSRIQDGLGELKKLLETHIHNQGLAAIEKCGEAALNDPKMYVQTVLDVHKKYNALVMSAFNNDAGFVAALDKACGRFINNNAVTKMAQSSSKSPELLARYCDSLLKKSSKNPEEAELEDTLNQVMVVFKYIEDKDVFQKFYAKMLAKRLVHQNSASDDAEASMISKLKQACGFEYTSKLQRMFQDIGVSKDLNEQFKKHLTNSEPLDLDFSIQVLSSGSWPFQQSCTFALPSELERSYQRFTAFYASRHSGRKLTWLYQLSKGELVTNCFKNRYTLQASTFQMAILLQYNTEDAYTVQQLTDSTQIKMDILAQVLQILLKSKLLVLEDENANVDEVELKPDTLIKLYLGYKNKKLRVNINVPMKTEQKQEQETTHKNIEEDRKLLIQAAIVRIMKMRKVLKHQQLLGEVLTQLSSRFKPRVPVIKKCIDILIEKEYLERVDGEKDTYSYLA
T1 sequence (P62877 whole entry, further chain, canonical isoform): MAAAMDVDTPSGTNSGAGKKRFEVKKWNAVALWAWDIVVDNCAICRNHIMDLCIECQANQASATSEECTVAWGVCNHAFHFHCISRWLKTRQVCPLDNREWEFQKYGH
T1 sequence (P61024 whole entry, further chain, canonical isoform): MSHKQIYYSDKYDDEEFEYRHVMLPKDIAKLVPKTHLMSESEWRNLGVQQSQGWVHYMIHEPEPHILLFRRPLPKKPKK

With `N#C/C(=C\c1ccc(O)c(O)c1)C(=O)c1ccc(O)c(O)c1` [AG538], the “shows up as inhibitor in R140 kinase inhibitor panel” value (from here on “shows up as inhibitor”) is “show up as inhibitors”.
`O=C(O[C@@H]1Cc2c(O)cc(O)cc2O[C@@H]1c1cc(O)c(O)c(O)c1)c1cc(O)c(O)c(O)c1` [EGCG]: the “IC50, E3 (SCF^Skp2/Cks1) assay ECL” value was “in the μM range”; the “shows up as inhibitor” value is “show up as inhibitors”; the “inhibition in E3 assay, panel of 41 inhibitors” value (“inhibition in E3 assay, panel” below) is listed as “moderate amounts of inhibition”.
The matching figures for `O=C1NCc2c1c1c3ccccc3[nH]c1c1[nH]c3ccccc3c21` [K252c]: “false positive”, “show up as inhibitors” and “moderate amounts of inhibition”.
`CCOC(=O)c1ccc(N2NC(=O)/C(=C/c3ccc([N+](=O)[O-])o3)C2=O)cc1` [PYR-41]: the “inhibition in E3 assay, panel” value is reported as above 80%.
As to `CC(=O)c1c(O)c(C)c(O)c(Cc2c(O)c3c(c(C(=O)/C=C/c4ccccc4)c2O)OC(C)(C)C=C3)c1O` [Rottlerin], the “IC50, E3 (SCF^Skp2/Cks1) assay ECL” value is given as “in the μM range”; the “shows up as inhibitor” value is reported as “show up as inhibitors”; the “inhibition in E3 assay, panel” value was “moderate amounts of inhibition”.
